The test system of assay [1] is Botrytis cinerea VKM F-4549. The assay is classed as cell-based. The settings on record: for Inhibition of B. cinerea growth: peptide 300 μM, relative to control; for B. cinerea growth dynamics in the presence of peptide: peptide 60 μM, absorbance after 14-62 h, control H2O. As to the method:
(§1) To study the effect of peptides on spore germination and growth of plant pathogenic fungi, fungal strains from the VKM collection were used: Fusarium culmorum VKM F-2303, F. oxysporum VKM F-137, F. solani VKM F-142, F. verticillioides VKM F-670, Bipolaris sorokiniana VKM F-4006, and Botrytis cinerea VKM F-4549. The fungi were grown on potato dextrose agar at 25 °C for 7–8 days, or for B. sorokiniana and B. cinerea, for 10–12 days. Spores were washed off from the surface of the mycelia with sterile distilled water and filtered through a sterile filter. The filtrate was centrifuged at 6000 rpm for 15 min. The precipitate was washed three times with sterile distilled water, transferred to Eppendorf tubes, and centrifuged at 10,000 rpm for 2 min. 1 mL of sterile aqueous 20% glycerol solution was added to the spores, and the tubes with spores were stored in a freezer at −20 °C.
(§2) Similar to antimicrobial assays with yeasts and bacteria, the effect of peptides on spore germination and fungal growth was studied by measuring the absorbance of the spore suspension in the presence of the peptide in microtiter plates. The wells of a plate were filled with 90 µL of spore suspension in half-strength potato dextrose broth at a concentration of 2000–3000 spores in 100 µL and 10 µL of aqueous solutions of peptides at final concentrations of 10–300 µM. The concentration of spores in the suspension was determined in the Goryaev chamber. The absorbance was recorded at 595 nm on a FilterMax F5 Multi-Mode Microplate Reader (Molecular Devices, San Jose, CA, USA) after 38 h of incubation, for B. sorokiniana and B. cinerea, after 14, 19, 24, 38, 43, 62 h.
(§3) Antimicrobial activity was expressed in IC50 values, which denote the concentration required for 50% inhibition of the pathogen growth; this was determined from a graph showing the dependence of antimicrobial activity on peptide concentration.
(§4) For each pathogen, experiments on the evaluation of antimicrobial activity of the synthetic peptides were performed with three replicates per treatment. Mean values, standard deviations (SD), and the significance of differences (p ≤ 0.05) of the means between treatments and controls (t-test for independent variables) were determined using STATISTICA v. 6.1 software (StatSoft Inc., Tulsa, OK, USA).

The test system of the next assay is F. oxysporum VKM F-137. The assay is classed as cell-based. The settings on record: Fusarium oxysporum; 38 h incubation, absorbance 595 nm; max tested 150 μM; mean ± SD, three replicates. As to the method: as §1, §2, §3, §4
Assay [2] concerns Cryptococcus neoformans VKM Y-2755. The following applies: for IC50: Cryptococcus neoformans, 24 h incubation, 30 °C, absorbance 594 nm, max tested 100 μM, mean ± SD, three replicates. As to the method:
(§5) The antimicrobial activity of synthetic peptides was tested against the yeasts Cryptococcus neoformans VKM Y-2755 and Candida albicans VKM Y-2994, as well as against the bacteria Pectobacterium carotovorum subsp. carotovorum VKM B-1247, Pseudomonas savastanoi pv. savastanoi VKM B-1546 and Clavibacter michiganensis subsp. michiganensis VKM Ac-1403. All cultures were obtained from the All-Russian Collection of Microorganisms (VKM). Yeasts were grown on YPD-P medium containing (g/L): glucose–10, peptone–5 and yeast extract–4. Bacterial cultures were grown on medium containing (g/L): yeast extract–1, soya extract–30, aminopeptides (a solution of low-molecular weight peptides and all essential amino acids obtained from the blood of cattle by enzymatic hydrolysis)–60, tryptone–5 and pH 7.2. The microbial cultures were grown on a shaker at 30 °C for 24 h. The optical density of the cultures was measured on a UNICO 1201 (Unico, Dayton, NJ, USA) spectrophotometer at 594 nm. Yeast cultures were diluted 1:10 with water before analysis. […] The antibiotic activity of peptides against yeasts and bacteria was assayed in immunoassay microtiter plates. 10 µL of the tested peptide solution (final concentrations of 10–300 µM) in water, 80 µL of the medium and 10 µL of the microbial suspension were mixed in a well of the microtiter plate and incubated at 30 °C for 24 h; after that, the absorbance of the suspension was measured on an Efos 9305 spectrophotometer (Sapphire, Moscow, Russia) at 594 nm.
as §3
For each pathogen, experiments on the evaluation of antimicrobial activity of the synthetic peptides were performed with three replicates per treatment. Mean values, standard deviations (SD), and the significance of differences (p ≤ 0.05) of the means between treatments and controls (t-test for independent variables) were determined using […] v. 6.1 software (StatSoft Inc., Tulsa, OK, USA).

Assay [3] concerns Clavibacter michiganensis subsp. michiganensis VKM Ac-1403. Format: cell-based. The following applies: for IC50: Clavibacter michiganensis, 24 h incubation, 30 °C, absorbance 594 nm, max tested 100 μM, mean ± SD, three replicates. As to the method:
as §5, §3, §4

Assay [4] relates to Fusarium culmorum VKM F-2303. The experiment in a line: Spore germination and fungal growth inhibition (absorbance). The assay is classed as cell-based. The following applies: for IC50: Fusarium culmorum, 38 h incubation, absorbance 595 nm, max tested 150 μM, mean ± SD, three replicates. The protocol:
as §1, §2, §3, §4

Assay [5] relates to Bipolaris sorokiniana VKM F-4006. The description is as above. The assay is classed as cell-based. As to the method:
as §1, §2, §3, §4

The subject of a further assay is Fusarium species. The experiment in a line: Spore germination and fungal growth inhibition, statement for all tested Fusarium species. Format: cell-based. The settings on record: peptide 300 μM, relative to control. The protocol: as §1
as §2, with “h. […]” for “h.”
(§6) For each pathogen, experiments on the evaluation of antimicrobial activity of the synthetic peptides were performed with three replicates per treatment. Mean values, standard deviations (SD), and the significance of differences (p ≤ 0.05) of the means between treatments and controls (t-test for independent variables) were determined using STATISTICA v. […]

The test system of assay [6] is F. verticillioides VKM F-670. Format: cell-based, Fusarium verticillioides. The protocol:
as §1
as §2, with “h. […]” for “h.”
as §6

Another assay concerns F. solani VKM F-142. Format: cell-based, Fusarium solani. The settings on record: Fusarium solani; 38 h incubation, absorbance 595 nm; max tested 150 μM; mean ± SD, three replicates. The protocol:
as §1
as §2, with “h. […]” for “h.”
as §6

The mark [7] stands for this setting: peptide 300 μM, 24 h, relative to control.

Peptide text beside a SMILES is read from it.

The term IC50 denotes the concentration needed to halve the response being measured. A low value points to greater potency.

On to `C[C@@H](O)[C@H](NC(=O)[C@H](CS)NC(=O)[C@H](Cc1ccccc1)NC(=O)[C@H](CS)NC(=O)[C@H](CCCNC(=N)N)NC(=O)[C@H](CCCNC(=N)N)NC(=O)[C@H](CCCNC(=N)N)NC(=O)[C@H](Cc1ccccc1)NC(=O)CNC(=O)[C@H](CCCNC(=N)N)NC(=O)[C@H](CS)NC(=O)[C@H](CC(N)=O)NC(=O)CNC(=O)CNC(=O)[C@@H](NC(=O)[C@@H](N)Cc1ccccc1)[C@@H](C)O)C(=O)N[C@@H](CCCNC(=N)N)C(=O)O` [γ58-74SlDEFL4] (H-FTGGNCRGFRRRCFCTR-OH), for which the “Inhibition of B. cinerea growth” value in [1] was 31–45%. The half-inhibitory concentration (IC50) with F. oxysporum VKM F-137 was determined as 125 ± 3.7 µM; in assay [2], 8.1 ± 2.4 µM; in assay [3] it was 21.5 ± 5.1 µM; in assay [4] it was 42.3 ± 5.7 µM.

On to `CC[C@H](C)[C@H](NC(=O)[C@H](CCC(=O)O)NC(=O)[C@@H]1CCCN1C(=O)[C@H](CS)NC(=O)[C@H](CS)NC(=O)CNC(=O)[C@@H](N)CCCCN)C(=O)N[C@@H](C)C(=O)NCC(=O)N[C@@H](CC(C)C)C(=O)N[C@@H](CC(C)C)C(=O)N[C@@H](CC(=O)O)C(=O)N[C@@H](CO)C(=O)N[C@@H](CC(N)=O)C(=O)N1CCC[C@H]1C(=O)N[C@H](C(=O)N[C@@H](CS)C(=O)O)[C@@H](C)CC` [γ70-86SlLTPg2.8] (H-KGCCPEIAGLLDSNPIC-OH; N-terminus and C-terminus assumed), for which the “B. cinerea growth dynamics in the presence of peptide” value in [1] was “insensitive”.

On to `C[C@@H](O)[C@H](NC(=O)[C@H](CCCCN)NC(=O)[C@@H]1CCCN1C(=O)[C@@H](NC(=O)[C@H](Cc1ccccc1)NC(=O)[C@H](CO)NC(=O)[C@H](CS)NC(=O)[C@H](Cc1ccc(O)cc1)NC(=O)CNC(=O)[C@H](Cc1ccccc1)NC(=O)[C@@H]1CCCN1C(=O)[C@@H](N)CCCNC(=N)N)[C@@H](C)O)C(=O)N[C@@H](CS)C(=O)O` [γ92-104SlMEG2] (H-RPFGYCSFTPKTC-OH; N-terminus and C-terminus assumed), for which, in assay [1], the “B. cinerea growth dynamics in the presence of peptide” value is reported as “insensitive” and the “Inhibition of B. cinerea growth” value was 36–40%. Also, in assay [2] (setting [7]), the “Inhibition of C. neoformans growth” value was “with high efficiency”. In addition, in [3] (setting [7]), the “Inhibition of C. michiganensis growth” value is on record as “with high efficiency”. The “B. sorokiniana growth dynamics in the presence of peptide” value in assay [5] (peptide 60 μM, effect observed after 38 h of spore incubation, control H2O) is listed as “significant growth suppression”. The “Suppression of Fusarium species” value in the assay with Fusarium species is “insensitive”.

Turning to `CC(C)C[C@H](NC(=O)CN)C(=O)N[C@@H](CS)C(=O)N[C@@H](CCCCN)C(=O)N[C@@H](Cc1ccc(O)cc1)C(=O)N[C@@H](CCCNC(=N)N)C(=O)N[C@@H](CS)C(=O)N[C@@H](CO)C(=O)N[C@@H](CC(C)C)C(=O)N[C@@H](Cc1c[nH]cn1)C(=O)N[C@@H](CO)C(=O)N[C@@H](CCCNC(=N)N)C(=O)N1CCC[C@H]1C(=O)N[C@@H](CC(N)=O)C(=O)N[C@H](C(=O)N[C@@H](CS)C(=O)N[C@@H](Cc1ccccc1)C(=O)N[C@@H](CCCNC(=N)N)C(=O)O)C(C)C` [γ89-106SlSN9] (H-GLCKYRCSLHSRPNVCFR-OH), the concentration for half-maximal inhibition (IC50) came out at 99.8 ± 10 µM in [6] (Fusarium verticillioides, 38 h incubation, absorbance 595 nm, max tested 180 μM, mean ± SD, three replicates); 5.1 ± 1.2 µM in [2]; 24 ± 2.4 µM in [3]; 42.4 ± 3.5 µM in assay [4]; 139 ± 6.1 µM in the assay with F. solani VKM F-142. In addition, the “Maximum inhibition of F. verticillioides” value in assay [6] (peptide 180 μM, 38 h) was found to be 62%. Moreover, the “Inhibition of F. culmorum growth” value in assay [4] (peptide 50 μM, 38 h) is 72%.

Turning to “SGCCTQLGTVVKNNPEC [γ56-72SlLTPg2.4, synthetic 17-residue peptide corresponding to the γ-core region of tomato nsLTP SlLTPg2.4]”, in assay [1], the “Inhibition of B. cinerea growth” value is “inactive”. Also, the “Inhibition of B. sorokiniana growth” value in assay [5] (peptide 300 μM, relative to control) was “inactive”. In addition, the “Suppression of Fusarium species” value in the assay with Fusarium species is “inactive”.

These data come from publication PMC8929047, “Synthetic Oligopeptides Mimicking γ-Core Regions of Cysteine-Rich Peptides of Solanum lycopersicum Possess Antimicrobial Activity against Human and Plant Pathogens” (Current Issues in Molecular Biology, 2021).
